{"source": "paper PMC8284453", "about": "(Antimicrobial Agents and Chemotherapy, 2021)", "key": {"[1]": {"system": "strains of Enterobacterales expressing serine β-lactamases", "assay": "organism not typed", "assay_type": "cell-based"}, "[2]": {"system": "strains utilized in time-kill studies", "assay": "MIC summary across strains utilized in time-kill studies", "assay_type": "cell-based, E. coli, E. cloacae, K. pneumoniae", "conditions": "across all four strains"}, "E. coli 1480076": {"system": "E. coli 1480076", "assay": "Impact of pH and human urine on MIC", "assay_type": "cell-based", "protocol": "(§1) Studies were conducted by IHMA, Schaumberg, IL. […] MICs were determined by broth […] methodology ([30], [31]). […] Antibacterial panels containing 100 μl of antibacterial solution were inoculated with the adjusted inocula using 95-prong inoculator sets. Test panels were read visually after incubation following CLSI guidelines for each organism. MIC values corresponded to the first well with no visible growth."}, "E. coli ATCC 25922": {"system": "E. coli ATCC 25922", "assay": "Impact of pH and human urine on MIC", "assay_type": "cell-based", "conditions": "Escherichia coli, ATCC25922, read-out: Median or modal MIC", "protocol": "as §1"}, "K. pneumoniae 1266420": {"system": "K. pneumoniae 1266420", "assay": "Impact of pH and human urine on MIC", "assay_type": "cell-based", "conditions": "Klebsiella pneumoniae", "protocol": "as §1"}, "K. pneumoniae 1434760": {"system": "K. pneumoniae 1434760", "assay": "Impact of pH and human urine on MIC", "assay_type": "cell-based", "protocol": "as §1"}, "[3]": {"system": "K. pneumoniae ATCC 700603", "assay": "Impact of pH and human urine on MIC", "assay_type": "cell-based", "conditions": "Klebsiella pneumoniae, ATCC700603, read-out: Median or modal MIC", "protocol": "as §1"}, "[4]": {"system": "K. pneumoniae ATCC BAA-1705", "assay": "Impact of pH and human urine on MIC", "assay_type": "cell-based", "conditions": "Klebsiella pneumoniae, ATCCBAA1705, read-out: Median or modal MIC", "protocol": "as §1"}, "[5]": {"system": "K. pneumoniae UNT-023 expressing KPC, TEM-1, and SHV-11", "assay": "microbe, parasite or virus in culture", "assay_type": "cell-based", "conditions": "Klebsiella pneumoniae"}, "[6]": {"system": "K. pneumoniae UNT-023 expressing KPC, TEM-1, and SHV-11", "assay": "animal or person", "assay_type": "in vivo", "conditions": "Klebsiella pneumoniae, in Mus musculus, 1 h"}, "[7]": {"system": "E. coli NCTC 13353 expressing CTX-M-15", "conditions": "approved QC range; ref CLSI AST Subcommittee, February 2021; cited from earlier work"}, "[8]": {"system": "K. pneumoniae ATCC BAA-1705 expressing KPC-2, SHV, and TEM", "conditions": "approved QC range; ref CLSI AST Subcommittee, February 2021; cited from earlier work"}, "[9]": {"system": "K. pneumoniae ATCC BAA-2814 expressing KPC-3, SHV-11, and TEM", "conditions": "approved QC range; ref CLSI AST Subcommittee, February 2021; cited from earlier work"}, "[10]": {"system": "1,066 clinical urinary tract infection isolates resistant to both amoxicillin-clavulanic acid and levofloxacin", "conditions": "VNRX-5236 fixed at 4 μg/ml in the combination; cited from earlier work"}, "[11]": {"conditions": "in vivo, cited from earlier work"}, "[12]": {"conditions": "cited from earlier work"}}, "note": "Read-outs that look alike come from different tables or passages of the source."}
{"compound": "Nc1nc(/C(=C/CC(=O)O)C(=O)N[C@@H]2C(=O)N3C(C(=O)O)=CCS[C@H]23)cs1", "note": "[CTB, ceftibuten]", "values": [{"measurement": "MIC50", "setting": "[1]", "value": 0.12, "unit": "µg/mL"}, {"measurement": "MIC90", "setting": "[1]", "value": 1, "unit": "µg/mL"}, {"measurement": "MIC range", "setting": "[2]", "value": "16 to 128", "unit": "µg/mL"}, {"measurement": "MIC", "setting": "E. coli 1480076; Escherichia coli, 1480076, read-out: Median or modal MIC", "value": 128, "unit": "µg/mL"}, {"measurement": "MIC", "setting": "E. coli 1480076; Escherichia coli, 1480076, Human urine, pH 6, read-out: Median or modal MIC", "value": 32, "unit": "µg/mL"}, {"measurement": "MIC", "setting": "E. coli 1480076; Escherichia coli, 1480076, Human urine, pH 7.2, read-out: Median or modal MIC", "value": 32, "unit": "µg/mL"}, {"measurement": "MIC", "setting": "E. coli ATCC 25922; Human urine, pH 6", "value": 0.25, "unit": "µg/mL"}, {"measurement": "MIC", "setting": "E. coli ATCC 25922; Human urine, pH 7.2", "value": 0.12, "unit": "µg/mL"}, {"measurement": "MIC", "setting": "E. coli ATCC 25922; MHII broth", "value": 0.25, "unit": "µg/mL"}, {"measurement": "MIC", "setting": "K. pneumoniae 1266420; Human urine, pH 6, read-out: Median or modal MIC", "value": 64, "unit": "µg/mL"}, {"measurement": "MIC", "setting": "K. pneumoniae 1266420; Human urine, pH 7.2, read-out: Median or modal MIC", "value": 16, "unit": "µg/mL"}, {"measurement": "MIC", "setting": "K. pneumoniae 1266420; MHII broth, read-out: Median or modal MIC", "value": 32, "unit": "µg/mL"}, {"measurement": "MIC", "setting": "K. pneumoniae 1434760; Klebsiella pneumoniae, 1434760, pH 6, read-out: Median or modal MIC", "value": "> 128", "unit": "µg/mL"}, {"measurement": "MIC", "setting": "K. pneumoniae 1434760; Klebsiella pneumoniae, 1434760, pH 7.2, read-out: Median or modal MIC", "value": 128, "unit": "µg/mL"}, {"measurement": "MIC", "setting": "K. pneumoniae 1434760; Klebsiella pneumoniae, 1434760, read-out: Median or modal MIC", "value": "> 128", "unit": "µg/mL"}, {"measurement": "MIC", "setting": "[3]; Human urine, pH 6", "value": 1, "unit": "µg/mL"}, {"measurement": "MIC", "setting": "[3]; Human urine, pH 7.2", "value": 0.5, "unit": "µg/mL"}, {"measurement": "MIC", "setting": "[3]; MHII broth", "value": 0.5, "unit": "µg/mL"}, {"measurement": "MIC", "setting": "[4]; Human urine, pH 6", "value": 2, "unit": "µg/mL"}, {"measurement": "MIC", "setting": "[4]; Human urine, pH 7.2", "value": 2, "unit": "µg/mL"}, {"measurement": "MIC", "setting": "[4]; MHII broth", "value": 8, "unit": "µg/mL"}, {"measurement": "MIC", "setting": "[5]", "value": 64, "unit": "µg/mL"}, {"measurement": "ED50", "setting": "[6]", "value": "> 128", "unit": "mg/kg"}, {"measurement": "QC range (MIC)", "setting": "[7]", "value": "16 to 64", "unit": "µg/mL"}, {"measurement": "QC range (MIC)", "setting": "[8]", "value": "4 to 32", "unit": "µg/mL"}, {"measurement": "QC range (MIC)", "setting": "[9]", "value": "8 to 32", "unit": "µg/mL"}, {"measurement": "MIC90", "setting": "[10]", "value": "> 32", "unit": "µg/mL"}, {"measurement": "oral bioavailability", "setting": "[11]; po", "value": "~65", "unit": "%"}, {"measurement": "plasma half-life", "setting": "[11]", "value": "~2.4", "unit": "h"}, {"measurement": "renal excretion", "setting": "[11]", "value": "~56", "unit": "%"}, {"measurement": "human plasma protein binding", "setting": "[12]", "value": "~60", "unit": "%"}]}
